Experimental findings from patent US9006139B2, “Active compound combinations” (Bayer Intellectual Property GmbH, priority 2009, dated 2015) are described below.

Like-named read-outs stand apart in the source and are kept apart here.

Type in all cases: in vivo
One assay has as its system Phytophthora infestans. In words: whole plant or invertebrate. Particulars: for Efficacy in % found: Table A.
The subject of a further assay is Sphaerotheca fuliginea. In words: Sphaerotheca test (cucumbers)/protective. The conditions noted are these: Table C; for pest or weed control at 5 ppm: 5 ppm a.i. As for the experimental part:
(§1) Solvent: 24.5 parts by weight of acetone
(§2) • 24.5 parts by weight of dimethylacetamide Emulsifier: 1 part by weight of alkylaryl polyglycol ether
To produce a suitable preparation of active compound, 1 part by weight of active compound is mixed with the stated amounts of solvent and emulsifier, and the concentrate is diluted with water to the desired concentration. To test for protect activity, young plants are sprayed with the preparation of active compound at the stated rate of application. After the spray coating has dried on, the plants are inoculated with an aqueous spore suspension of Sphaerotheca fuliginea. The plants are then placed in a greenhouse at approximately 23° C. and a relative atmospheric humidity of approximately 70%. The test is evaluated 7 days after the inoculation. 0% means an efficacy which corresponds to that of the control, while an efficacy of 100% means that no disease is observed.

The next assay deals with Botrytis cinerea. The assay can be described thus: Botrytis test (beans)/protective. The conditions noted are these: Table F. As for the experimental part:
as §1, §2
To produce a suitable preparation of active compound, 1 part by weight of active compound is mixed with the stated amounts of solvent and emulsifier, and the concentrate is diluted with water to the desired concentration. To test for protective activity, young plants are sprayed with the preparation of active compound. After the spray coating has dried on, 2 small pieces of agar covered with growth of Botrytis cinerea are placed on each leaf. The inoculated plants are placed in a darkened chamber at 20° C. and a relative atmospheric humidity of 100%. 2 days after the inoculation, the size of the lesions on the leaves is evaluated. 0% means an efficacy which corresponds to that of the control, while an efficacy of 100% means that no disease is observed.

Another assay deals with Alternaria solani. In words: Alternaria test (tomatoes)/protective. Particulars: Table E. As for the experimental part: as §1, §2
To produce a suitable preparation of active compound, 1 part by weight of active compound is mixed with the stated amounts of solvent and emulsifier, and the concentrate is diluted with water to the desired concentration. To test for protective activity, young plants are sprayed with the preparation of active compound at the stated rate of application. After the spray coating has dried on, the plants are inoculated with an aqueous spore suspension of Alternaria solani. The plants are then placed in an incubation cabinet at approximately 20° C. and a relative atmospheric humidity of 100%. The test is evaluated 3 days after the inoculation. 0% means an efficacy which corresponds to that of the control while an efficacy of 100% means that no disease is observed.

Where [1] appears, read: Podosphaera fuliginea, 168 h, test 4, read-out: Efficacy in % found.
Where [2] appears, read: Botrytis cinerea, 48 h, test 1, 25 ppm a.i., read-out: Efficacy in % found.
The mark [3] stands for this setting: Botrytis cinerea, 48 h, test 2, 50 ppm a.i., read-out: Efficacy in % found.

Consider metalaxyl-M (mefenoxam) [(12.10)], for which the “Efficacy in % found” value in the assay with Phytophthora infestans (test 7, 1.25 ppm a.i.) was 13%.
Turning to `COC(=O)C(C)N(C(=O)Cc1ccccc1)c1c(C)cccc1C` (stereo not shown) [(12.1), benalaxyl], in the assay with Phytophthora infestans (Phytophthora infestans, 72 h, read-out: Efficacy in % found, Table A, test 4, 1 ppm a.i.), the pest or weed control at 1 ppm came out at 26%.
Turning to `COc1ccccc1N1CCS/C1=C(/C#N)Sc1cc(C(F)(F)F)ccc1F` [(15.57), flutianil], the “Efficacy in % found” value in the assay on Sphaerotheca fuliginea (test 2, 0.5 ppm a.i.) is 48%.
With `COc1ccc(C(=CC(=O)N2CCOCC2)c2ccc(Cl)cc2)cc1OC` [(9.2), dimethomorph], the pest or weed control at 0.5 ppm in the assay on Phytophthora infestans (Phytophthora infestans, 72 h, read-out: Efficacy in % found, Table A, test 2, 0.5 ppm a.i.) was 28%.
Take `Cc1ccc(C(C)NC(=O)[C@@H](NC(=O)OC(C)C)C(C)C)cc1` (stereo partly shown) [(9.4), iprovalicarb]: the “Efficacy in % found” value with Phytophthora infestans (test 7, 1.25 ppm a.i.) amounted to 42%.
Turning to `CC1COC(Cn2cncn2)(c2ccc(Oc3ccc(Cl)cc3)cc2Cl)O1` (stereo not shown) [(1.7), difenoconazole], the pest or weed control at 5 ppm with Sphaerotheca fuliginea (setting [1]) stood at 38%.
Turning to `[Cu+2].[OH-].[OH-]` [(5.16), copper hydroxide], in the assay with Phytophthora infestans (test 6, 25 ppm a.i.), the “Efficacy in % found” value was found to be 43%.
In the case of `CCCCCCCCc1c(CC)nc2ncnn2c1N` [(15.1), ametoctradin], the “Efficacy in % found” value in the assay on Phytophthora infestans (test 2, 2.5 ppm a.i.) is reported as 73%.
On to `COC(=O)NC(=S)Nc1ccccc1NC(=S)NC(=O)OC` [(4.8), thiophanate-methyl], for which, in the assay with Phytophthora infestans (Phytophthora infestans, 72 h, read-out: Efficacy in % found, Table A, test 6, 250 ppm a.i.), the pest or weed control at 250 ppm was determined as 29%. The pest or weed control at 12.5 ppm with Botrytis cinerea (Botrytis cinerea, 48 h, test 3, 12.5 ppm a.i., read-out: Efficacy in % found) turned out to be 84%.
In the case of `CCCCCOC(=O)Nc1cccc(CON=C(c2ccccc2)c2nnnn2C)n1` [(15.66), pentyl {6-[({[(1-methyl-1H-tetrazol-5-yl)(phenyl)methylidene]amino}oxy)-methyl]pyridin-2-yl}carbamate], in the assay with Phytophthora infestans (Phytophthora infestans, 72 h, read-out: Efficacy in % found, Table A, test 5, 0.5 ppm a.i.), the pest or weed control at 0.5 ppm came out at 30%.
As to mancozeb [(5.19)], the “Efficacy in % found” value in the assay with Phytophthora infestans (test 3, 50 ppm a.i.) came to 53%.
As for `N#Cc1sc2c(=O)c3ccccc3c(=O)c=2sc1C#N` [(5.6), dithianon], the pest or weed control at 25 ppm in the assay on Phytophthora infestans (Phytophthora infestans, 72 h, read-out: Efficacy in % found, Table A, test 6, 25 ppm a.i.) was 54%.
With `N#Cc1c[nH]cc1-c1cccc2c1OC(F)(F)O2` [(13.2), fludioxonil], the pest or weed control at 5 ppm with Botrytis cinerea (Botrytis cinerea, 48 h, test 2, 5 ppm a.i., read-out: Efficacy in % found) is 84%.
For the compound “phosphorous acid and its salts [(15.62)]”, the “Efficacy in % found” value with Phytophthora infestans (test 6, 500 ppm a.i.) was 54%.
For the compound `CC(C)NC(=O)N1CC(=O)N(c2cc(Cl)cc(Cl)c2)C1=O` [(10.7), iprodione], the pest or weed control at 25 ppm in the assay with Botrytis cinerea (setting [2]) worked out at 0%. Moreover, the pest or weed control at 12.5 ppm in the assay on Alternaria solani (Alternaria solani, 72 h, test 1, 12.5 ppm a.i., read-out: Efficacy in % found) is 35%.
In the case of propineb [(5.23)], in the assay on Phytophthora infestans (test 6, 50 ppm a.i.), the “Efficacy in % found” value worked out at 26%.
Take `CCOc1ccc(NC(=O)OC(C)C)cc1OCC` [(4.3), diethofencarb]: in the assay on Botrytis cinerea (Botrytis cinerea, 48 h, test 3, 50 ppm a.i., read-out: Efficacy in % found), the pest or weed control at 50 ppm was determined as 29%.
In the case of `CCCN(CC)CC1COC2(CCC(C(C)(C)C)CC2)O1` (stereo not shown) [(1.46), spiroxamine], the pest or weed control at 100 ppm in the assay on Sphaerotheca fuliginea (Podosphaera fuliginea, 168 h, test 3, 100 ppm a.i., read-out: Efficacy in % found) turned out to be 10%.
As to `CCO[PH](=O)O` [(15.20), fosetyl-Al], the “Efficacy in % found” value in the assay with Phytophthora infestans (test 7, 62.5 ppm a.i.) is listed as 53%.
On to `CC(C1CC1)C(O)(Cn1cncn1)c1ccc(Cl)cc1` (stereo not shown) [(1.5), cyproconazole], for which, in the assay with Alternaria solani (Alternaria solani, 72 h, test 2, 0.5 ppm a.i., read-out: Efficacy in % found), the pest or weed control at 0.5 ppm was determined as 0%.
On to `CSC1=N[C@@](C)(c2ccccc2)C(=O)N1Nc1ccccc1` [(3.7), fenamidone], for which the pest or weed control at 1 ppm with Phytophthora infestans (Phytophthora infestans, 72 h, read-out: Efficacy in % found, Table A, test 1, 1 ppm a.i.) came to 62%.
For the compound `CC(C)(C)C(=O)C(Oc1ccc(Cl)cc1)n1cncn1` (stereo not shown) [(1.50), triadimefon], in the assay with Sphaerotheca fuliginea (setting [1]), the pest or weed control at 5 ppm stood at 19%.
`Fc1ccc(Oc2ccnc3cc(Cl)cc(Cl)c23)cc1` [(13.3), quinoxyfen]: the pest or weed control at 5 ppm in the assay on Sphaerotheca fuliginea (Podosphaera fuliginea, 168 h, test 3, read-out: Efficacy in % found) was found to be 37%.
`N#Cc1c[nH]cc1-c1cccc(Cl)c1Cl` [(13.1), fenpiclonil]: the pest or weed control at 10 ppm in the assay on Botrytis cinerea (Botrytis cinerea, 48 h, test 2, 10 ppm a.i., read-out: Efficacy in % found) is 0%.
With `COC(=O)[C@@H](C)N(C(=O)Cc1ccccc1)c1c(C)cccc1C` [(12.2), benalaxyl-M (kiralaxyl)], in the assay with Phytophthora infestans (test 4, 1 ppm a.i.), the “Efficacy in % found” value was 19%.
For the compound `O=C(Nc1ccccc1)N(Cc1ccc(Cl)cc1)C1CCCC1` [(4.6), pencycuron], the pest or weed control at 50 ppm with Botrytis cinerea (setting [3]) came to 0%.
With `COC(=O)CC(NC(=O)[C@@H](NC(=O)OC(C)C)C(C)C)c1ccc(Cl)cc1` (stereo partly shown) [(9.10), valifenalate], in the assay with Phytophthora infestans (test 2, 0.5 ppm a.i.), the “Efficacy in % found” value was 58%.
As for `N#Cc1c(Cl)c(Cl)c(Cl)c(C#N)c1Cl` [(5.4), chlorothalonil], the pest or weed control at 2.5 ppm in the assay with Phytophthora infestans (Phytophthora infestans, 72 h, read-out: Efficacy in % found, Table A, test 5, 2.5 ppm a.i.) turned out to be 50%.
For `Cc1cc(C)nc(Nc2ccccc2)n1` [(7.7), pyrimethanil], in the assay on Botrytis cinerea (setting [3]), the pest or weed control at 50 ppm stood at 0%.
As for metiram [(5.21)], the “Efficacy in % found” value in the assay with Phytophthora infestans (test 3, 50 ppm a.i.) is 17%.
Regarding `O=C1C2CC=CCC2C(=O)N1SC(Cl)(Cl)Cl` (stereo not shown) [(5.3), captan], the pest or weed control at 50 ppm with Phytophthora infestans (Phytophthora infestans, 72 h, read-out: Efficacy in % found, Table A, test 6, 50 ppm a.i.) is 60%.
Turning to `CC(C)(C)C(O)C(Oc1ccc(-c2ccccc2)cc1)n1cncn1` (stereo not shown) [(1.3), bitertanol], the pest or weed control at 5 ppm in the assay with Sphaerotheca fuliginea (setting [1]) was 71%.
Regarding `N#Cc1ccccc1NC(=O)c1snc(Cl)c1Cl` [(15.22), isotianil], the “Efficacy in % found” value with Botrytis cinerea (test 2, 50 ppm a.i.) was 0%.
In the case of `Fc1ccc([C@]2(Cn3cncn3)O[C@H]2c2ccccc2Cl)cc1` (racemic) [(1.12), epoxiconazole], the pest or weed control at 0.5 ppm in the assay with Sphaerotheca fuliginea (Podosphaera fuliginea, 168 h, test 1, 0.5 ppm a.i., read-out: Efficacy in % found) is 30%. Moreover, the pest or weed control at 25 ppm with Botrytis cinerea (setting [2]) turned out to be 49%.
Take `CC(C)[C@H](NC(=O)O)C(=O)N[C@H](C)c1nc2ccc(F)cc2s1` [(9.1), benthiavalicarb]: in the assay with Phytophthora infestans (test 1, 0.25 ppm a.i.), the “Efficacy in % found” value is recorded as 12%.
In the case of `CO/C=C(/C(=O)OC)c1ccccc1Oc1cc(Oc2ccccc2C#N)ncn1` [(3.2), azoxystrobin], the “Efficacy in % found” value worked out at 23% in the assay with Phytophthora infestans (test 1, 1 ppm a.i.); 0% in the assay with Botrytis cinerea (test 1, 25 ppm a.i.); 40% in the assay with Alternaria solani (test 1, 0.5 ppm a.i.).
Consider `O=C(NCc1ncc(C(F)(F)F)cc1Cl)c1c(Cl)cccc1Cl` [(15.17), fluopicolide], for which the “Efficacy in % found” value in the assay on Phytophthora infestans (test 1, 1 ppm a.i.) is given as 0%.
On to `CCCCNC(=O)n1c(NC(=O)OC)nc2ccccc21` [(4.1), benomyl], for which the pest or weed control at 2.5 ppm with Botrytis cinerea (Botrytis cinerea, 48 h, test 3, 2.5 ppm a.i., read-out: Efficacy in % found) was found to be 8%.
Regarding `COc1cc(C)c(C(=O)c2c(OC)ccc(Br)c2C)c(OC)c1OC` [(15.25), metrafenone], in the assay with Sphaerotheca fuliginea (Podosphaera fuliginea, 168 h, test 2, 10 ppm a.i., read-out: Efficacy in % found), the pest or weed control at 10 ppm was found to be 21%.
As to `Cc1cc(C(F)(F)F)nn1CC(=O)N1CCC(c2nc(C3=NO[C@@H](c4c(F)cccc4F)C3)cs2)CC1` [(15.88), 1-(4-{4-[(5R)-5-(2,6-difluorophenyl)-4,5-dihydro-1,2-oxazol-3-yl]-1,3-thiazol-2-yl}piperidin-1-yl)-2-[5-methyl-3-(trifluoromethyl)-1H-pyrazol-1-yl]ethanone], the pest or weed control at 0.025 ppm in the assay on Phytophthora infestans (Phytophthora infestans, 72 h, read-out: Efficacy in % found, Table A, test 5, 0.025 ppm a.i.) worked out at 50%.
Regarding `O=C1c2ccccc2C(=O)N1SC(Cl)(Cl)Cl` [(5.9), folpet], in the assay on Phytophthora infestans (Phytophthora infestans, 72 h, read-out: Efficacy in % found, Table A, test 3, 50 ppm a.i.), the pest or weed control at 50 ppm was found to be 32%.
